In patent publication US20250127698A1, “Hair Perming Compositions With Amine Derivatives” (ELC Management LLC, priority 2023, published 2025):

Columns and labels:
[1] = pH of hair perming composition; assay type: physicochemical; details: for pH: hair perming composition: base of Table 2 (7.50% thioglycolic acid) plus alkalizer, same molar percentage of alkalizer
Excerpt: For testing, we prepared the hair perming compositions shown by Tables 2 and 3, below. […] All compositions contain the same molar percentage of alkalizer, the water content being adjusted accordingly.

[2] = Curl efficiency after hair curling treatment; design: species or system human; details: for Curl Efficiency (%) After Treatment, 1 Wash and Dry: 1 wash with 5% SDS solution; for Curl Efficiency (%) After Treatment, 8 Washes and Dry: equivalent of 8 washes with 5% SDS solution
Excerpt: (§1) The ability of each test composition to curl hair was established by measuring “curl efficiency”. Curl efficiency is a measure of curl tightness following a hair curling treatment. The higher the efficiency, the tighter the curl. We used a well-known method of measuring curl efficiency, wherein a portion of untreated straight hair of known length, Lu, is secured on an arrangement of pegs to form a sine wave pattern of five cycles, crest-to-crest. Because the pegs are fixed, the ideal length, Li, of the portion of hair when arranged into the five-cycle wave pattern, is known. Starting with a straight swatch of hair of length Lu, the ideal outcome would be a curled swatch of hair with a length of Li. Curl efficiency is a measure of how closely the ideal is attained.
(§2) Two types of hair samples were tested for curling; mixed sourced virgin Type 1Caucasian hair, and single sourced virgin Type 1 hair. For straightening, mixed sourced virgin Type 2C (very wavy) Caucasian hair was tested. Hair straightening test samples were prepared by collecting hair fibers into tresses, and clamping each tress at both ends. For those test samples that were to undergo a straightening treatment, the length, Lu, was measured between two previously determined points.
(§3) Each hair tress was wetted (reverse osmosis water). For curling, each hair tress was wound along a peg board to form a sine wave pattern of five cycles, as described above. For straightening, each hair tress was held on a board in a straight conformation, tension was applied, and the ends of the tress were secured. All test samples (curling or straightening) were allowed to dry before proceeding. Each board with a hair tress test sample was dipped for 10 seconds into a beaker with one of the hair perming compositions. After removing a board from solution, it was immediately placed in an oven for 20 minutes at 37° C. (normal body temperature). The test sample was removed from the oven, and rinsed for five minutes with 37° C. water, being careful not to allow the running water to fall directly on the hair tresses. After blotting with a paper towel, test samples were allowed to rest for five minutes at room temperature, for air oxidation to occur. The hair straightening test samples were removed from the board, blow dried and flat ironed at 200° C., which is commonly done in salon practice. At this point, the ideal length, Li, was measured between the two previously determined point mentioned above. Thereafter, each sample was rebound to the board.
(§4) Each bound hair tress was submerged for ten seconds in a 2% solution of H2O2 to neutralize the reducing agent and promote S-S bond formation, so that the hair tress would retain a desired shape (sine wave pattern or straight) when removed from the board. Each hair tress rested at room temperature for about five minutes, then was rinsed under 37° C. running water for five minutes, and subsequently blotted with a paper towel. Each test sample hair tress was removed from the board, laid on a flat surface, and allowed to dry. The fully permed dry tresses were washed in 5% SDS (sodium dodecyl sulfate) solution (which simulates salon practice) and allowed to dry overnight.
(§5) For the curling test samples, the length, Lt, of five waves, crest to crest was measured. For the straightening test samples, the final length, Lt, was measured between the two previously determined points. At this point, differential scanning calorimetry (DSC) measurements were made on a portion of each hair tress test sample. Also, for longevity performance, each tress was subjected to the equivalent of eight hand washings in 5% SDS solution using the GyroWash color fastness to laundering tester, and allowed to dry, before another length measurement, Lt, was made.
(§6) Curl efficiencies were computed using Equation 1.
(§7) [formula] • Lu=length of the untreated hair tress • Lt=crest-to-crest length of the five-wave portion of the treated hair tress • Li=ideal length of curled hair […]

[3] = Curl efficiency after hair curling treatment; design: species or system human; % Change In Curl Efficiency From 1 to 8 Washes: concentration or dose not given beside the values; details: for Curl Efficiency (%) After Treatment, 1 Wash and Dry: 1 wash with 5% SDS solution; for Curl Efficiency (%) After Treatment, 8 Washes and Dry: equivalent of 8 washes with 5% SDS solution
Excerpt: as §1, §2, §3, §4, §5, §6, §7

[4] = Straightening efficiency after hair straightening treatment; design: species or system human; details: Type 2C Caucasian hair; 1 wash with 5% SDS solution
Excerpt: The ability of each test composition to straighten curly hair was established by measuring “straightening efficiency”. Straightening efficiency represents the degree to which curly hair is made straight by a hair straightening treatment. We start with a curly, untreated hair tress of length Lu. The tress has an ideal straight length of Li, which is the length of the untreated tress when flat ironed to its maximum, straight length. After treatment the tress has a length of Lt. Straightening efficiency is the gain in length as a percentage of the maximum possible gain in length. […] A straightening efficiency of 100% means that the treated tress retained the maximum possible length.
as §2, §3, §4, §5
Straightening efficiencies were computed using Equation 2.
[formula] • Lu=length of the untreated hair tress • Lt=length of treated hair tress • Li=ideal length of straightened hair
(Li−Lu) represents the maximum possible increase in length as a result of treatment. […]

[5] = DSC keratin denaturation temperature change after curling treatment; design: species or system human; details: for ΔT (TUntreated−TAlkalizer, keratin denaturation temperature): Type 1 Chinese hair after curling treatment, larger ΔT indicates more damage
Excerpt: (§8) This damage occurs at the level of keratin proteins.
(§9) Untreated hair was used as a control.
(§10) A larger ΔT indicates more damage.

[6] = DSC keratin denaturation temperature change after straightening treatment; design: species or system human; details: for ΔT (TUntreated−TAlkalizer, keratin denaturation temperature): Type 3 Caucasian hair after straightening, larger ΔT indicates more damage
Excerpt: as §8, §9, §10

[7] = DSC keratin denaturation temperature change after curling treatment; details: Type 1 Caucasian hair after curling treatment; larger ΔT indicates more damage
Description: It is known that the denaturation of keratin in hair can be detected by differential scanning calorimetry (DSC). DSC is a thermal analysis technique used to measure phase transition temperatures and heat of transformation (enthalpy) for endothermic and exothermic reactions.
For all of the test samples discussed above, DSC measurements were performed using the Discovery DSC 2500 (from TA Instruments. New Castle, DE). The experiments were carried out over a temperature range of 40° C. to 200° C., with a scan rate of 5° C./min under nitrogen protection. DSC samples were prepared by cutting tress samples into pieces (0.1 to 1.0 mm in size) and weighing. The hair samples were mixed with deionized water, and then sealed in high volume pans for at least 6 hours before measuring. The phase transition temperature (keratin denaturation temperature) of each hair sample was analyzed using TRIOS software (Discovery DSC 2500). Untreated hair was used as a control.
Each hair sample was analyzed at least twice, and the average temperature was obtained for data analysis. This was subtracted from the denaturation temperature of the control sample (ΔT=TUntreated−TAlkalizer). A larger ΔT indicates more damage.

[8] = active component of alkalizer; cited from earlier work

Compound | pH of alkalizer composition ([1]; Table 7) | pH of alkalizer composition ([1]; Table 8) | pH of alkalizer composition ([1]; Table 9) | pH [1] | % Change In Curl Efficiency From 1 to 8 Washes ([2]; Type 1 Caucasian hair) [%] | Curl Efficiency (%) After Treatment, 1 Wash and Dry ([2]; Type 1 Caucasian hair) [%] | Curl Efficiency (%) After Treatment, 8 Washes and Dry ([2]; Type 1 Caucasian hair) [%] | % Change In Curl Efficiency From 1 to 8 Washes ([3]; Type 1 Chinese hair) [%] | Curl Efficiency (%) After Treatment, 1 Wash and Dry ([3]; Type 1 Chinese hair) [%] | Curl Efficiency (%) After Treatment, 8 Washes and Dry ([3]; Type 1 Chinese hair) [%] | Straightening Efficiency (%) After Treatment, 1 Wash and Dry [4] [%] | ΔT (TUntreated−TAlkalizer, keratin denaturation temperature) [5] [C. °] | ΔT (TUntreated−TAlkalizer, keratin denaturation temperature) [6] [°C] | ΔT (TUntreated−TAlkalizer, keratin denaturation temperature) [7] [°C] | pKa [8] | further results
[Na+].[OH-] [NaOH, reference compound] | 10.56 | 10.56 | 10.56 | 10.56 | −17.64 | 47.66 | 39.25 | −19.92 | 54.86 | 43.93 | 65.71 | 5.60 | 4.60 | 6.34 | – | –
DL-2-amino-1-propanol [DL-2-AP] | 9.45 | 9.45 | 9.45 | 9.45 | −11.11 | 50.47 | 44.86 | −21.01 | 69.81 | 55.14 | 95.35 | 3.49 | 3.20 | 3.95 | 9.6 | curl after the equivalent of 8 washes (in words) ([2]; Caucasian hair): still had the most curl; curl lost after the equivalent of 8 washes, as percentage of initial curl (in words) ([2]; Caucasian hair): lost the most curl of the tested samples; imparting curl (in words) ([2]; Type 1 Caucasian hair): best at imparting curl; curl after the equivalent of 8 washes (in words) ([3]; Chinese hair): still had the most curl; curl lost after the equivalent of 8 washes, as percentage of initial curl (in words) ([3]; Chinese hair): lost the most curl of the tested samples; imparting curl (in words) ([3]; Type 1 Chinese hair): best at imparting curl; damage to hair (in words) ([5]; hair curling treatment, Type 1 Chinese hair): did not perform as well as the other alkalizers; damage to hair (in words) ([6]; hair straightening treatment, Type 3 Caucasian hair): more damage than ammonium hydroxide, MEA or AMP
CC(C)(N)CO [AMP, Aminomethyl propanol, reference compound] | – | – | – | – | – | – | – | – | – | – | – | 1.65 | 2.60 | 3.11 | 9.82 | –
